Here are results for 1 compound from patent publication US8785594B2, “Glycoproteins and glycosylated cells and a method for the preparation of the same” (Glycom A/S, priority 2007, dated 2014).

Data set [1] relates to B16.BL6 melanoma cells. In words: Cell concentration and viability after conjugation, trypan blue (Example 11). Format: cell-based. The protocol:
Two flasks (300 cm^2) (TPP, Trasadingen Switzerland) of confluent B16.BL6 melanoma cells grown in DMEM containing 10% fetal calf serum (without P/S) at 37.5° C. in 5% CO2 were used for this experiment. Growth medium was removed from the cells and 25 mL of PBS (without Mg^2+ and Ca^2+) (Gibco Invitrogen, Taastrup, Denmark) was added to the cells and immediately removed again. Another 10 mL of PBS was added and removed, before cells were harvested with Cell Dissociation Solution C5914 (Sigma-aldrich, Saint Louis, Mo.) (3 mL per flask) and transferred to 10 mL tubes (TPP, Trasadingen Switzerland). The cells were centrifuged for 5 minutes at 300 G at 20° C. and the supernatant was discarded. Subsequently, cells were washed in PBS (without Mg^2+ and Ca^2+), centrifuged as above and resuspended in PBS (without Mg^2+ and Ca^2+). The concentration of the cell suspension was determined.
Five hundred mg of alpha-Gal trisaccharide-carbamate (9) was dissolved in PBS (without Mg^2+ and Ca^2+) (Gibco Invitrogen, Taastrup, Denmark) and passed through a sterile filter (Sartorius Minisart®, 0.20 my) (Sartorius, Goettingen, Germany). Eight different concentrations of conjugate were prepared. Two mL of each conjugate dilution was added to a flask with 2 mL of PBS (without Mg^2+ and Ca^2+) and 600 μl of cell suspension containing 10^6 B16.BL6 cells. The final volume of the flasks was 4.6 mL. The flasks were numbered 1 to 10. Flasks 1 and 10 contained no conjugate and served as controls. The cells were incubated with the conjugate for 3 hours and 25 minutes at 37° C. and 5% CO2.
After conjugation, cells from conjugation reaction 1 (non-conjugated cells), 2, 4, 6 and 8 were harvested with 10 mL of Cell Dissociation Solution C5914 (Sigma-Aldrich, Saint Louis, Mo.) and transferred to 10 mL tubes (TPP, Trasadingen Switzerland). Cells were centrifuged for 5 minutes at 300 G at 20° C. and resuspended in PBS (without Mg^2+ and Ca^2+). Finally, cells were centrifuged as before and resuspended in 100 μl TBS with 1% BSA. Cell concentration and viability was determined by microscopic evaluation of trypan blue stained cell samples. Cells from conjugation reaction 3, 5, 7, 9 and 10 (non-conjugated cells), were harvested the following day as described above. The cells were centrifuged once for 5 minutes at 300 G at 20° C. and resuspended in 100 μl TBS with 1% BSA. Cell concentration and viability was determined by microscopic evaluation of trypan blue stained cell samples.

Data set [2] relates to B16.BL6 melanoma cells. Briefly: Flow cytometry with FITC-labelled GS1B4 (Example 15). In kind it is cell-based. The conditions noted are these: all conjugation reactions, 10 μg-20 mg regular probe. The protocol: Radioactive labelled and regular alpha-Gal trisaccharide-carbamate (9) probe (labeled on the cyclic carbamate carbon) was dissolved in HBSS containing D-glucose (without Mg^2+ and Ca^2+) (Gibco Invitrogen, Taastrup, Denmark) and passed through sterile filters (0.2 μm Supor® Acrodisc® 13, Gelman Sciences, Ann Arbor, Mich.). Eight different concentrations of radioactive labelled alpha-Gal trisaccharide-carbamate (9) (1 μg, 10 μg, 100 μg, 1 mg, 5 mg, 10 mg, 15 mg and 20 mg) and […] concentrations of regular “Glycom conjugate” (10 μg, 100 μg, 1 mg, 5 mg, 10 mg, 15 mg and 20 mg) were used. Twelve flasks (300 cm^2) (TPP, Trasadingen Switzerland) were prepared, each containing 10×10^6 B16.BL6 cells, for conjugation with the radioactive labelled trisaccharide probe, and 8 flasks (150 cm^2) (TPP, Trasadingen Switzerland) were prepared, each containing 5×10^6 B16.BL6 cells, for conjugation with the non-radioactive conjugate. […] This was repeated 3 times before cell concentration and viability was determined by microscopic evaluation of trypan blue stained cell samples.
Cells conjugated with regular trisaccharide probe were analysed by flow cytometry. […] Mean fluorescence intensity of cells stained with GS1B4 was measured by flow cytometry.
(A flow cytometer gives signals particle by particle.)

[3] abbreviates: reaction 2, 200 mg conjugate, 10^6 cells, PBS, 3 h 25 min 37° C.
[4] abbreviates: reaction 3, 100 mg conjugate, measured 1 day after the conjugation procedure.
The mark [5] stands for this setting: reaction 5, 20 mg conjugate, measured 1 day after the conjugation procedure.
Setting [6] is: reaction 7, 5 mg conjugate, measured 1 day after the conjugation procedure.
Setting [7] is: reaction 9, 1 mg conjugate, measured 1 day after the conjugation procedure.

Each structure is given as a SMILES string.

`O=C1N[C@@H]2O[C@H](CO)[C@@H](O[C@@H]3O[C@H](CO)[C@H](O)[C@H](O[C@H]4O[C@H](CO)[C@H](O)[C@H](O)[C@H]4O)[C@H]3O)[C@H](O)[C@H]2O1` [Compound 9, alpha-Gal trisaccharide-carbamate]: the Cell concentration with B16.BL6 melanoma cells [1] (setting [3]) is 3.50 × 10^6 cells/mL; in the data set on B16.BL6 melanoma cells [1] (setting [4]), 3.08 × 10^6 cells/mL; in the data set with B16.BL6 melanoma cells [1] (reaction 4, 50 mg conjugate), 3.16 × 10^6 cells/mL; with B16.BL6 melanoma cells [1] (setting [5]), 1.90 × 10^6 cells/mL; in the data set with B16.BL6 melanoma cells [1] (reaction 6, 10 mg conjugate), 2.26 × 10^6 cells/mL; with B16.BL6 melanoma cells [1] (setting [6]) it was 2.02 × 10^6 cells/mL. Moreover, the Cell concentration in the data set on B16.BL6 melanoma cells [1] (reaction 8, 2 mg conjugate) was 2.22 × 10^6 cells/mL; in the data set on B16.BL6 melanoma cells [1] (setting [7]) it was 2.12 × 10^6 cells/mL. The Cell viability in the data set with B16.BL6 melanoma cells [1] (setting [3]) is listed as 58.9%; in the data set with B16.BL6 melanoma cells [1] (setting [4]), 65.6%; with B16.BL6 melanoma cells [1] (reaction 4, 50 mg conjugate), 1.9%; in the data set on B16.BL6 melanoma cells [1] (setting [5]) it was 0.0%; in the data set on B16.BL6 melanoma cells [1] (reaction 6, 10 mg conjugate), 16.8%; in the data set on B16.BL6 melanoma cells [1] (setting [6]) it was 34.7%. Also, the Cell viability in the data set with B16.BL6 melanoma cells [1] (reaction 8, 2 mg conjugate) turned out to be 8.1%; in the data set on B16.BL6 melanoma cells [1] (setting [7]), 16.0%. The “Binding of FITC-labelled GS1B4 to cells” value with B16.BL6 melanoma cells [2] is listed as “no binding above background levels”.
